Data reported in patent US20060270694A1, “JAK kinase inhibitors and their uses” (Rigel Pharmaceuticals, Inc., priority 2005, published 2006).

Test system: JAK kinase (JAK1 and JAK3)
Assay: IL-4 activation assay: CD23 upregulation in IL-4 stimulated Ramos B-cells, FACS
Type: cell-based, human
Procedure: The selectivity of the compounds illustrated in TABLES 1 and 2 for JAK kinases as compared to Syk kinase was confirmed in cellular assays designed to test for JAK and Syk inhibition. Briefly, JAK inhibition was tested in human Ramos B-cells activated with IL-4. Twenty to 24 hours post stimulation, the cells are stained for upregulation of CD23 and analyzed by FACS. Stimulation of the B-cells with IL-4 leads to the activation of the JAK/STAT pathway through phosphorylation of the JAK kinase JAK1 and JAK3, which in turn phosphorylate and activate transcription of factor […].
For the assay, human Ramos B-cells (ATCC, Catalog No. CRL-1596) are cultured in RPMI 1640 medium (Cellgro, Catalog No. 10-040-CM) containing 10% fetal bovine serum (JRH, Catalog No. 12106-500M) according to the propagation protocol supplied with the cells, and maintained at a density of approximately 3.5×10^5 cells/ml. The day before the assay, the cells are diluted to 3.5×10^5 cells/ml to insure they are in the logorithmic growth phase. The cells are spun down, and suspended in RPMI 1640 medium containing 5% fetal bovine serum to a density of 3.5×10^4 cells/ml and aliquots dispensed into a 96-well tissue culture plate. Cells are incubated with test compound (dissolved in DMSO) or DMSO (control) for 1 hr at 37° C. and then stimulated with IL-4 (Pepotech, Catalog No. 200-04) for 20-24 hours (final concentration is 50 Units/ml). Cells are then spun down, stained with anti-CD23-PE antibody (BD Pharmigen, Catalog No.555711) and analyzed by FACS.

[1] = TABLE 1, IC50 CHMC degranulation / IC50 IL-4 Ramos CD23, minimum ratio, calculated using Syk IC50 of 50 μM (upper limit of assay)
[2] = TABLE 2, IC50 CHMC degranulation (tryptase) / IC50 IL-4 Ramos CD23

Row | Compound | IC50 Ratio (Syk/JAK) [1] | IC50 Ratio (Syk/JAK) [2]
1 | CNC(=O)COc1cccc(Nc2ncc(F)c(Nc3ccc(OC)c(CN(C(=O)OC(C)(C)C)C(C)C)c3)n2)c1 [Cmpd 22] | 13 | 
2 | Cc1ccc(Nc2ccnc(Nc3ccc(C)c([N+](=O)[O-])c3)n2)cc1[N+](=O)[O-] [Cmpd 3] | 147 | 
3 | CNC(=O)c1cc(Nc2ncc(F)c(Nc3ccc(OC)c(Cl)c3)n2)ccc1N1CCN(C)CC1 [Cmpd 55] |  | 23
4 | CCN1CCN(c2ccc(Nc3ncc(F)c(NC4CC(C)(C)N(C)C(C)(C)C4)n3)cn2)CC1 [Cmpd 23] | 12 | 
5 | COC(=O)CNC(=O)c1ccc(Nc2ncc(F)c(Nc3ccc(OCc4nc(C)no4)cc3)n2)cc1 [Cmpd 67] |  | 17
6 | CCN(CC)CCNC(=O)c1ccc(Nc2ncc(F)c(Nc3ccc(OCc4nc(C)no4)cc3)n2)cc1 [Cmpd 34] |  | 55
7 | NC(=O)c1ccc(Nc2ncc(F)c(NC3CCCC3)n2)cc1 [Cmpd 6] | 70 | 
8 | COC(=O)CNC(=O)c1ccc(Nc2nc(Nc3cccc(O)c3)ncc2F)cc1 [Cmpd 88] |  | 10
9 | O=C1Nc2cc(Nc3nc(Nc4ccc(-c5cnco5)cc4)ncc3F)ccc2OC1CCO (stereo not shown) [Cmpd 79] |  | 12
10 | CCN(CC)CCNC(=O)c1ccc(Nc2ncc(F)c(Nc3cc(OC)cc(OC)c3)n2)cc1 [Cmpd 47] |  | 29
11 | CS(=O)(=O)Nc1ccc(Nc2ncc(F)c(Nc3ccc(NS(C)(=O)=O)cc3)n2)cc1 [Cmpd 64] |  | 19
12 | COc1ccc(Nc2ccnc(Nc3ccc(OC)c(-c4ccccc4)c3)n2)cc1-c1ccccc1 [Cmpd 15] | 24 | 
13 | CCN(CC)CCNC(=O)c1ccc(Nc2ncc(F)c(Nc3ccc(Cl)c(Cl)c3)n2)cc1 [Cmpd 59] |  | 21
14 | CNS(=O)(=O)c1ccc(Nc2ncc(F)c(Nc3ccc(OC)c(OC)c3)n2)cc1OC [Cmpd 85] |  | 10
15 | COc1ccc(Nc2nc(Nc3ccc(N4CCN(C)CC4)c(C#N)c3)ncc2F)cc1Cl [Cmpd 36] |  | 43
16 | CNC(=O)COc1cccc(Nc2ncc(F)c(Nc3ccc(OC)c(C(=O)OC)c3)n2)c1 [Cmpd 68] |  | 16
17 | Cc1noc(COc2ccc(Nc3nc(Nc4cc(Cl)c(O)c(Cl)c4)ncc3F)cc2)n1 [Cmpd 4] | 145 | 
18 | Cc1cc(Nc2ncc(F)c(NC3CCCC3)n2)cnc1N1CCN(C)CC1 [Cmpd 77] |  | 13
19 | CCN(CC)CCNC(=O)c1ccc(Nc2ncc(F)c(Nc3ccc(OC)c(Cl)c3)n2)cc1 [Cmpd 58] |  | 21

Row | Compound | IC50 Ratio (Syk/JAK) [1] | IC50 Ratio (Syk/JAK) [2]
20 | COc1c(C)cc(Nc2ncc(F)c(NC3=NCCN3)n2)cc1C [Cmpd 43] |  | 31
21 | Cc1cc(Nc2nc(Nc3ccc(C(N)=O)c(Cl)c3)ncc2F)ccc1N1CCN(C)CC1 [Cmpd 89] |  | 10
22 | CNC(=O)CNC(=O)c1ccc(Nc2ncc(F)c(Nc3ccc(OC)c(Cl)c3)n2)cc1 [Cmpd 66] |  | 17
23 | COc1ccc(Nc2ncc(F)c(Nc3ccc4c(c3)NC(=O)CO4)n2)cc1Cl [Cmpd 75] |  | 14
24 | O=C1Nc2ccc(Nc3nc(Nc4cccc(-c5ncco5)c4)ncc3F)cc2OC1CCO (stereo not shown) [Cmpd 57] |  | 21
25 | Cc1noc(COc2ccc(Nc3nc(Nc4ccc(C(N)=O)c(O)c4)ncc3F)cc2)n1 [Cmpd 78] |  | 13
26 | COC(=O)CNC(=O)c1ccc(Nc2ncc(F)c(Nc3ccc(C(N)=O)cc3)n2)cc1 [Cmpd 73] |  | 14
27 | COc1ccc(Nc2nc(Nc3cccc(-c4ncco4)c3)ncc2F)cc1OC [Cmpd 45] |  | 30
28 | N#Cc1ccc(Nc2ncc(F)c(Nc3ccc(C#N)cc3)n2)cc1 [Cmpd 54] |  | 24
29 | CNC(=O)C1=Cc2cccc(Nc3ncc(F)c(Nc4cc(C)cc(C)c4)n3)c2C1 [Cmpd 13] | 26 | 
30 | C[C@@H]1Oc2ccc(Nc3nc(Nc4ccc(CN)cc4)ncc3F)cc2NC1=O [Cmpd 37] |  | 42
31 | Fc1ccc(Nc2ncc(F)c(Nc3ccc4c(c3)OCCO4)n2)cc1Cl [Cmpd 24] | 12 | 
32 | COc1cc(Nc2nc(Nc3ccc(CN)cc3)ncc2F)cc(OC)c1 [Cmpd 76] |  | 14
33 | COC(=O)c1ccc(Nc2ncc(F)c(Nc3ccc(C(=O)OC)cc3)n2)cc1 [Cmpd 61] |  | 20
34 | CN1CCN(c2ccc(Nc3ncc(F)c(Nc4cc(C5CC5)n[nH]4)n3)cc2Cl)CC1 [Cmpd 30] |  | 85
35 | NCc1cccc(Nc2ncc(F)c(Nc3cccc(CN)c3)n2)c1 [Cmpd 44] |  | 30
36 | COc1ccc(Nc2ncc(F)c(Nc3ccc(OCc4nc(C)no4)cc3)n2)cc1Cl [Cmpd 51] |  | 25
37 | CNC(=N)COc1ccc(Nc2nc(Nc3ccc4c(c3)OCCO4)ncc2F)cc1 [Cmpd 81] |  | 11
